≈ marks a conversion by molar mass, not a printed value. Structures can show the parent of a compound that is named as a salt. Where two headings read alike, the source gives them in different places.
Key:
Assay in all cases: Bacterial growth minimal inhibitory concentration (microdilution, cation-adjusted Mueller-Hinton Broth)
Type in all cases: cell-based
[1] = system: E. coli ATCC25922; details: for MIC: Escherichia coli
Experimental: (§1) Minimal Inhibitory Concentrations (MICs; mg/L) were determined in cation-adjusted Mueller-Hinton Broth by a microdilution method following the description given in “Methods for Dilution Antimicrobial Susceptibility Tests for Bacteria that Grow Aerobically”, Approved standard, 7th ed., a Clinical and Laboratory Standards Institute (CLSI) Document M7-A7, Wayne, Pa., USA (2006).
(§2) All Example compounds were tested against several Gram-positive and Gram-negative bacteria. […] K. pneumoniae A-651 is a multiply-resistant strain (in particular quinolone-resistant), while E. coli ATCC25922 and P. aeruginosa ATCC27853 are quinolone-sensitive strains.

[2] = system: K. pneumoniae A-651; details: for MIC: Klebsiella pneumoniae
Experimental: as §1, §2

[3] = system: P. aeruginosa ATCC27853; details: for MIC: Pseudomonas aeruginosa
Experimental: as §1, §2

[4] = ATCC25922, quinolone-sensitive strain, read-out: MIC for E. coli ATCC25922
[5] = A651, multiply-resistant strain (in particular quinolone-resistant), read-out: MIC for K. Pneumoniae A-651
[6] = ATCC27853, quinolone-sensitive strain, read-out: MIC for P. aeruginosa ATCC27853

Row | MIC [1, 4] [µg/mL] | MIC [2, 5] [µg/mL] | MIC [3, 6] [µg/mL] | Compound | other results
1 | ≤ 0.063 | 0.25 (≈ 0.569 µM) | 1 (≈ 2.28 µM) | COc1cccc(-c2cc3n(c2)C(=O)N(CC[C@](C)(C(=O)NO)S(C)(=O)=O)C3)c1F [Example 28, (R)-4-(6-(2-fluoro-3-methoxyphenyl)-3-oxo-1H-pyrrolo[1,2-c]imidazol-2(3H)-yl)-N-hydroxy-2-methyl-2-(methylsulfonyl)butanamide] | –
2 | 0.25 (≈ 0.559 µM) | 0.5 (≈ 1.12 µM) | 2 (≈ 4.47 µM) | C[C@@](CCN1Cc2cc(/C=C/c3ccc(CO)cc3)cn2C1=O)(C(=O)NO)S(C)(=O)=O [Example 29, (R)-(E)-N-hydroxy-4-(6-(4-(hydroxymethyl)styryl)-3-oxo-1H-pyrrolo[1,2-c]imidazol-2(3H)-yl)-2-methyl-2-(methylsulfonyl)butanamide] | –
3 | 0.125 (≈ 0.272 µM) | 0.25 (≈ 0.544 µM) | 0.5 (≈ 1.09 µM) | C[C@@](CCN1Cc2cc(C#CC#CC34CC(CO)(C3)C4)cn2C1=O)(C(=O)NO)S(C)(=O)=O [Example 30, (R)-N-hydroxy-4-(6-(4-(3-(hydroxymethyl)bicyclo[1.1.1]pentan-1-yl)buta-1,3-diyn-1-yl)-3-oxo-1H-pyrrolo[1,2-c]imidazol-2(3H)-yl)-2-methyl-2-(methylsulfonyl)butanamide] | –
4 | ≤ 0.063 | 0.25 (≈ 0.512 µM) | 0.5 (≈ 1.02 µM) | C[C@@](CCN1Cc2cc(C#Cc3ccc(COC(N)=O)cc3)cn2C1=O)(C(=O)NO)S(C)(=O)=O [Example 32, (R)-4-((2-(4-(hydroxyamino)-3-methyl-3-(methylsulfonyl)-4-oxobutyl)-3-oxo-2,3-dihydro-1H-pyrrolo[1,2-c]imidazol-6-yl)ethynyl)benzyl carbamate] | –
5 | 0.125 (≈ 0.279 µM) | 0.25 (≈ 0.559 µM) | 0.5 (≈ 1.12 µM) | C[C@@]1(C#CC#Cc2cc3n(c2)C(=O)N(CC[C@](C)(C(=O)NO)S(C)(=O)=O)C3)C[C@H]1CO [Example 36, (R)-N-hydroxy-4-(6-(((1R,2R)-2-(hydroxymethyl)-1-methylcyclopropyl)buta-1,3-diyn-1-yl)-3-oxo-1H-pyrrolo[1,2-c]imidazol-2(3H)-yl)-2-methyl-2-(methylsulfonyl)butanamide] | –
6 | 1 (≈ 2.13 µM) | 2 (≈ 4.26 µM) | 4 (≈ 8.52 µM) | C[C@@](CCN1Cc2cc(-c3ccc(OCCO)cc3F)cn2C1=O)(C(=O)NO)S(C)(=O)=O [Example 41, (R)-4-(6-(2-fluoro-4-(2-hydroxyethoxy)phenyl)-3-oxo-1H-pyrrolo[1,2-c]imidazol-2(3H)-yl)-N-hydroxy-2-methyl-2-(methylsulfonyl)butanamide] | –
7 | 8 (≈ 17.3 µM) | 8 (≈ 17.3 µM) | 4 (≈ 8.63 µM) | C[C@@](CCN1Cc2cc(C#CC#CC3[C@@H](CO)[C@H]3CO)cn2C1=O)(C(=O)NO)S(C)(=O)=O (stereo partly drawn) [Example 42, (R)-4-(6-(((2R,3S)-2,3-bis(hydroxymethyl)cyclopropyl)buta-1,3-diyn-1-yl)-3-oxo-1H-pyrrolo[1,2-c]imidazol-2(3H)-yl)-N-hydroxy-2-methyl-2-(methylsulfonyl)butanamide] | –

More lines, now with the values behind:

Row | Compound | MIC [1, 4] [µg/mL] | MIC [2, 5] [µg/mL] | MIC [3, 6] [µg/mL] | other results
8 | C[C@@](CCN1Cc2cc(C#CC#C[C@@H]3C[C@H]3CO)cn2C1=O)(C(=O)NO)S(C)(=O)=O [Example 27, (R)-N-hydroxy-4-(6-(((1R,2R)-2-(hydroxymethyl)cyclopropyl)buta-1,3-diyn-1-yl)-3-oxo-1H-pyrrolo[1,2-c]imidazol-2(3H)-yl)-2-methyl-2-(methylsulfonyl)butanamide] | ≤ 0.063 | 0.25 (≈ 0.577 µM) | 0.5 (≈ 1.15 µM) | –
9 | CC(C)(N)C#CC#Cc1cc2n(c1)C(=O)N(CC[C@](C)(C(=O)NO)S(C)(=O)=O)C2 [Example 31, (R)-4-(6-(5-amino-5-methylhexa-1,3-diyn-1-yl)-3-oxo-1H-pyrrolo[1,2-c]imidazol-2(3H)-yl)-N-hydroxy-2-methyl-2-(methylsulfonyl)butanamide] | 1 (≈ 2.38 µM) | 1 (≈ 2.38 µM) | 1 (≈ 2.38 µM) | –
10 | C[C@@](CCN1Cc2cc(C#CC#C[C@@H]3C[C@@H](O)[C@@H](O)C3)cn2C1=O)(C(=O)NO)S(C)(=O)=O [Example 33, (R)-4-(6-(((1S,3R,4S)-3,4-dihydroxycyclopentyl)buta-1,3-diyn-1-yl)-3-oxo-1H-pyrrolo[1,2-c]imidazol-2(3H)-yl)-N-hydroxy-2-methyl-2-(methylsulfonyl)butanamide] | – | – | – | MIC for E. coli ATCC25922 ([1]; quinolone-sensitive strain): 0.5 µg/mL; MIC for K. Pneumoniae A-651 ([2]; multiply-resistant strain (in particular quinolone-resistant)): 0.5 µg/mL; MIC for P. aeruginosa ATCC27853 ([3]; quinolone-sensitive strain): 1 µg/mL
11 | C[C@@](CCN1Cc2cc(C#Cc3ccc(C4(COC(N)=O)CC4)cc3)cn2C1=O)(C(=O)NO)S(C)(=O)=O [Example 34, (R)-(1-(4-((2-(4-(hydroxyamino)-3-methyl-3-(methylsulfonyl)-4-oxobutyl)-3-oxo-2,3-dihydro-1H-pyrrolo[1,2-c]imidazol-6-yl)ethynyl)phenyl)cyclopropyl)methyl carbamate] | 0.125 (≈ 0.236 µM) | 1 (≈ 1.89 µM) | 16 (≈ 30.3 µM) | –
12 | C[C@@](CCN1Cc2cc(C#CC#CC3(COC(N)=O)CC3)cn2C1=O)(C(=O)NO)S(C)(=O)=O [Example 35, (R)-(1-((2-(4-(hydroxyamino)-3-methyl-3-(methylsulfonyl)-4-oxobutyl)-3-oxo-2,3-dihydro-1H-pyrrolo[1,2-c]imidazol-6-yl)buta-1,3-diyn-1-yl)cyclopropyl)methyl carbamate] | 0.25 (≈ 0.525 µM) | 0.5 (≈ 1.05 µM) | 2 (≈ 4.2 µM) | –
13 | C[C@@](CCN1Cc2cc(C#CC#CC3(N)CC3)cn2C1=O)(C(=O)NO)S(C)(=O)=O.Cl [Example 38, (R)-4-(6-((1-aminocyclopropyl)buta-1,3-diyn-1-yl)-3-oxo-1H-pyrrolo[1,2-c]imidazol-2(3H)-yl)-N-hydroxy-2-methyl-2-(methylsulfonyl)butanamide hydrochloride] | 0.25 | 0.25 | 1 | –
14 | C[C@@](CCN1Cc2cc(C#CC#CC3(N)COC3)cn2C1=O)(C(=O)NO)S(C)(=O)=O [Example 39, (R)-4-(6-((3-aminooxetan-3-yl)buta-1,3-diyn-1-yl)-3-oxo-1H-pyrrolo[1,2-c]imidazol-2(3H)-yl)-N-hydroxy-2-methyl-2-(methylsulfonyl)butanamide hydrochloride] | – | – | – | MIC ([1]; ATCC25922, read-out: MIC for E. coli ATCC25922): 2 µg/mL; MIC ([2]; A651, read-out: MIC for K. Pneumoniae A-651): 4 µg/mL; MIC ([3]; ATCC27853, read-out: MIC for P. aeruginosa ATCC27853): 4 µg/mL
15 | C[C@@](CCN1Cc2cc(C#Cc3ccc(C4(CO)CCC4)cc3)cn2C1=O)(C(=O)NO)S(C)(=O)=O [Example 40, (R)-N-hydroxy-4-(6-((4-(1-(hydroxymethyl)cyclobutyl)phenyl)ethynyl)-3-oxo-1H-pyrrolo[1,2-c]imidazol-2(3H)-yl)-2-methyl-2-(methylsulfonyl)butanamide] | ≤ 0.063 | 0.25 (≈ 0.5 µM) | 1 (≈ 2 µM) | –
16 | C[C@@](CCN1Cc2cc(-c3ccc(OC[C@H](O)CO)cc3F)cn2C1=O)(C(=O)NO)S(C)(=O)=O [Example 43, (R)-4-(6-(4-((R)-2,3-dihydroxypropoxy)-2-fluorophenyl)-3-oxo-1H-pyrrolo[1,2-c]imidazol-2(3H)-yl)-N-hydroxy-2-methyl-2-(methylsulfonyl)butanamide] | 8 (≈ 16 µM) | 16 (≈ 32 µM) | 8 (≈ 16 µM) | –
17 | C[C@@](CCN1Cc2cc(C#Cc3ccc(C(F)(F)CO)cc3)cn2C1=O)(C(=O)NO)S(C)(=O)=O [Example 44, (R)-4-(6-((4-(1,1-difluoro-2-hydroxyethyl)phenyl)ethynyl)-3-oxo-1H-pyrrolo[1,2-c]imidazol-2(3H)-yl)-N-hydroxy-2-methyl-2-(methylsulfonyl)butanamide] | ≤ 0.063 | 0.25 (≈ 0.505 µM) | 1 (≈ 2.02 µM) | –

Reference: patent US10106544B2, “1,2-dihydro-3H-pyrrolo[1,2-C]imidazol-3-one derivatives and their use as antibacterial agents” (priority 2014, dated 2018)
